Literature values in patent US9687454B2, “Sublingual and buccal film compositions” (Indivior UK Limited, priority 2009, dated 2017).

Details: known value

For C=CCN1CC[C@]23c4c5ccc(O)c4O[C@H]2C(=O)CC[C@@]3(O)[C@H]1C5 [naloxone], the pKa is given as “about 7.94”.
